Test results reported in US20130203805A1, “Methods for treating anemia using inhibitors of hypoxia-inducible factor (HIF) hydroxylase” (FIBROGEN, INC., priority 2001, published 2013).

What was measured:
erythropoietin (EPO) = experiment: Serum/plasma erythropoietin level by immunoassay (Example 2, Experiment I); assay type: in vivo, Swiss Webster male mice; conditions: mice; 200 mg/kg/day oral gavage 2.5 days; 4 h after final dose; relative to untreated controls; FIG. 2B
Method: (§1) Twelve Swiss Webster male mice (30-32 g) were obtained from Simonsen, Inc. (Gilroy Calif.), and treated by oral gavage two times per day for 2.5 days (5 doses) with a 4 ml/kg volume of either 0.5% carboxymethyl cellulose (CMC; Sigma-Aldrich, St. Louis Mo.) (0 mg/kg/day) or 2.5% Compound C (25 mg/ml in 0.5% CMC) (200 mg/kg/day). Four hours after the final dose, animals were anesthetized with isoflurane and two blood samples were collected from the abdominal vein. One blood sample was collected into a MICROTAINER serum separator tube (Becton-Dickinson, Franklin Lakes N.J.), and incubated at room temperature for 30 minutes, centrifuged at 8,000 rpm at 4° C. for 10 minutes. The serum fraction was then processed and analyzed for erythropoietin (EPO) expression using a QUANTIKINE immunoassay (R&D Systems) according to the manufacturer's instructions. The second blood sample was collected into a MICROTAINER EDTA-2K tube (Becton-Dickinson) for hematocrit analysis. Hematocrit was measured by drawing EDTA-blood into a 75 mm×1.1-12 mm I.D. capillary tube (Chase Scientific Glass, Inc., Rockwood Tenn.) to approximately ¾ length. One end of the tube was sealed with CRITOSEAL sealant (Sherwood Medical Company) and the tube was centrifuged in a J-503M MICROHEMATOCRIT centrifuge (Jorgensen Laboratories, Inc., Loveland Colo.) at 12,000 rpm for 5 minutes. Hematocrit was read against a reader card. […]

[1] = Hematocrit (Example 2, Experiment I); assay type: in vivo, Swiss Webster male mice; conditions: mice; 200 mg/kg/day oral gavage 2.5 days; 4 h after final dose; relative to untreated controls; FIG. 2C
Method: as §1

[2] = test system: erythropoietin gene expression; experiment: Erythropoietin gene expression in liver and kidney by quantitative PCR (Example 2, Experiment I); assay type: in vivo, Swiss Webster male mice; conditions: mice, 200 mg/kg/day oral gavage twice daily 2.5 days (5 doses), 4 h after final dose, FIG. 2A
Method: as §1, with “The second blood sample was collected into a MICROTAINER EDTA-2K tube (Becton-Dickinson) for hematocrit analysis.” left out, “One end of the tube was sealed with CRITOSEAL sealant (Sherwood Medical Company) and the tube was centrifuged in a J-503M MICROHEMATOCRIT centrifuge (Jorgensen Laboratories, Inc., Loveland Colo.) at 12,000 rpm for 5 minutes.” left out
RNA isolation was carried out using the following protocol. […] The RNA was eluted into 80 μL of water and quantitated with RIBOGREEN reagent (Molecular Probes, Eugene Oreg.). […] The absorbance at 260 and 280 nm was measured to determine RNA purity and concentration. […]
The relative level of 18S ribosomal RNA gene expression was measured as a control. […]

[3] = Dose response in vivo: reticulocytes, hemoglobin, hematocrit (Example 3); design: species or system Sprague Dawley male rats; conditions: rats
Method: Twelve Sprague Dawley male rats (approx. 260 g) were obtained from Charles River Laboratories, Inc., and treated by oral gavage as follows: (1) Four rats were dosed daily for days 1 to 7 with 0.5% carboxymethyl cellulose (CMC; Sigma-Aldrich, St. Louis Mo.) (0 mg/kg), were not treated for days 8 to 14, and then were dosed daily for days 15 to 19 with 0.5% CMC (0 mg/kg); (2) four animals were treated on day 0 and day 3 with a total of 7 ml/kg/day of 5.0% compound C (50 mg/ml in 0.5% CMC) (350 mg/kg), were not treated days 8 to 14, and then were dosed daily for days 15 to 19 with 3% compound C: (30 mg/ml in 0.5% CMC) (60 mg/kg/day); and (3) four animals were treated daily for days 1 to 7 with a total volume of 4 ml/kg/day of 2.5% compound C (25 mg/ml in 0.5% CMC) (100 mg/kg), were not treated days 8 to 14, and then were dosed daily for days 15 to 19 with 3% compound C (60 mg/kg/day). Thus, groups (2) and (3) received a total of 700 mg compound/kg body weight over the first 7 days, no treatment from days 8 to 14, and then 60 mg/kg/day for another 5 days. Animals were monitored for change in body weight and signs of toxicity. Blood samples (2×0.5 ml) were collected on days 1, 3, 7, 10, 17 and 21 as follows. Animals were anesthetized with isoflurane and 0.5 ml of blood was collected from the tail vein of each animal into each of two MICROTAINER EDTA-2K tubes (Becton-Dickinson). Blood samples were processed for erythropoietin levels, hemoglobin, and hematocrit as described above.

With `O=C(O)CNC(=O)c1nc(Cl)c2ccccc2c1O` [Compound C, [(1-chloro-4-hydroxy-isoquinoline-3-carbonyl)-amino]-acetic acid] the erythropoietin plasma level (erythropoietin (EPO)) was “significant increase”, the hematocrit [1] was “significantly increased” and the “increase over background in EPO transcript level, kidney” value ([2]; relative to untreated kidney) was “approximately 580 fold”. The “increase over background in EPO transcript level, liver” value ([2]; relative to untreated liver) was “approximately 32 fold”, the “increase in hemoglobin and hematocrit with lower doses” value ([3]; 60 mg/kg/day days 15 to 19 after no treatment days 8 to 14) was “maintained over an extended period of time” and the “immature blood cells (reticulocytes)” value ([3]; oral gavage, total 700 mg/kg over first 7 days, FIG. 4B) was “subsequent increase”. For the same compound, the blood hemoglobin levels ([3]; oral gavage, total 700 mg/kg over first 7 days, FIG. 4C) was “increased” and the hematocrit ([3]; oral gavage, total 700 mg/kg over first 7 days, FIG. 4D) was “increased”.
